We go through 14 compounds from patent US8236963B2, “Tricyclic spiro derivatives as CRTH2 modulators” (Merck Serono SA, priority 2005, dated 2012).

The target in test [1] is T1, CRTH2 (Homo sapiens, UniProt Q9Y5Y4).
T1 sequence (Q9Y5Y4 1-395): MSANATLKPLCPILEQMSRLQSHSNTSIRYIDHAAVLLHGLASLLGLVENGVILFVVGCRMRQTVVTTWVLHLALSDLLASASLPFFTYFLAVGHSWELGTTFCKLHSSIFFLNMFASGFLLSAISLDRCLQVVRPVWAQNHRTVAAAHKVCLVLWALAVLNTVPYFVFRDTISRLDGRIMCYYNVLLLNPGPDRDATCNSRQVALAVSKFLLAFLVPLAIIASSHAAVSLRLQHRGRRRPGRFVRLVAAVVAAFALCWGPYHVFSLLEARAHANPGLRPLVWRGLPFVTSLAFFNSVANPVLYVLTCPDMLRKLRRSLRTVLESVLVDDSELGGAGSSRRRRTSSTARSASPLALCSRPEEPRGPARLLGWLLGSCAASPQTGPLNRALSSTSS
The test can be described thus: Radioligand binding assay ([3H]PGD2, hCRTH2 HEK293 (EBNA) cell membranes). On the set-up: expressed in transfected cells; host or cells: HEK293 (EBNA) cells, membrane preparation. Particulars: 1.5 nM [3H]PGD2, 10 μg hCRTH2 HEK293 (EBNA) membrane protein, 60 min at room temperature. The source says: Human CRTH2 cDNA was amplified by PCR using a human urinary bladder cDNA library as a template and specific primers containing HindIII and BamHI restriction sites for cloning into the pCEP4 vector (Invitrogen). The vector construction is described in detail in Sawyer et al., Br. J. Pharmocol 2002, 137, 1163-72. The nucleotide sequence of the cloned cDNA was identical the previously reported hCRTH2 sequence (Nagata et al, 1999, J. Immunol. 162, 1278-1286).
HEK293 (EBNA) cells were transfected with the pCEP4-hCRTH2 construct using the calcium phosphate technique. Cells were maintained in culture at 37° C. in an atmosphere of 5% CO2 in Dulbecco's modified Eagle's F12 medium (Invitrogen), containing 10% heat-inactivated foetal calf serum (TerraCell International, Canada), 2 mM Glutamine, 100 units/ml of penicillin and 100 μg/ml streptomycin (Invitrogen). 48 hours after the transfection, cells were grown in presence of 300 μg/ml of Hygromycin B (Invitrogen) for 4 weeks and antibiotic resistant cells were amplified for cell membrane preparation.
Adherent HEK293 (EBNA) cells expressing hCRTH2 were cultured in 225 cm^2 cell culture flasks (Corning, USA) in 30 ml of medium. After two rinses of phosphate buffered saline (PBS), cells were harvested in 10 ml of PBS containing 1 mM EDTA, centrifuged at 500×g for 5 min at 4° C. and frozen at −80° C. The pellet was re-suspended in 50 mM Tris-HCl, pH 7.4, 2 mM EDTA, 250 mM Sucrose, containing protease inhibitor cocktail tablets, (Complete EDTA-free, Roche, Germany) and incubated 30 min at 4° C. Cells were disrupted by nitrogen cavitation (Parr Instruments, USA) at 4° C. (800 p.s.i. for 30 min), and centrifuged at 500×g for 10 min at 4° C. Pellet containing nuclei and cellular debris was discarded and supernatant was centrifuged 60 min at 4° C. at 45000×g. Membrane pellet was re-suspended in storage buffer (10 mM HEPES/KOH pH 7.4, 1 mM EDTA, 250 mM sucrose, protease inhibitor cocktail tablets) using Dounce homogenization and frozen in liquid nitrogen, and stored at −80° C.
The inhibitory activity can be investigated by a radioligand binding assay (Sawyer et al., Br. J. Pharmocol 2002, 137, 1163-72). The radioligand binding assay was performed at room temperature in binding buffer (10 mM HEPES/KOH pH […], with protease inhibitor cocktail tablets), containing 1.5 nM [^3H]PGD2 (Amersham, 156 Cie/mmol), and 10 μg of hCRTH2 HEK293 (EBNA) cell membrane protein in a final volume of 100 μl in 96 well plates (Corning, USA). Non-specific binding was determined in the presence of 1 μM PGD2 (Cayman, USA). Competing spiro-indolinones were diluted in dimethylsulphoxide so that the total volume of dimethylsulfoxide was kept constant at 1% dimethylsulphoxide (Me2SO) Serial dilutions of 100 μM and […] were prepared. 10 μl each of these spiro-indolinone stock solutions were added. Incubation (60 min at room temperature) was terminated by rapid filtration through 96 wells hydrophobic GF/C Unifilter plates (Whatman, USA). Filters were washed twice with 250 μl of Tris-HCl pH 7.4, 10 mM MnCl2, and residual radioligand bound to the filters was mixed to 100 μl of liquid scintillation cocktail (Optiphase Supermix, Perkin Elmer, USA) and binding activity was determined by counting residual radioligand using a 1450 Micro-beta scintillation counter (Wallac, UK). The following representative compounds were tested. […]

The target in test [2] is T1, CRTH2. The experiment in a line: Determination of Ki (radioligand binding assay, equilibrium competition against [3H]PGD2). On the set-up: expressed in transfected cells; host or cells: HEK293 (EBNA) cells, membrane preparation. The note with it: average of at least three independent dose response experiments. As for the experimental part: The inhibitory activity can be investigated by a radioligand binding assay (Sawyer et al., Br. J. Pharmocol 2002, 137, 1163-72). The radioligand binding assay was performed at room temperature in binding buffer (10 mM HEPES/KOH pH […], with protease inhibitor cocktail tablets), containing 1.5 nM [^3H]PGD2 (Amersham, 156 Cie/mmol), and 10 μg of hCRTH2 HEK293 (EBNA) cell membrane protein in a final volume of 100 μl in 96 well plates (Corning, USA). Non-specific binding was determined in the presence of 1 μM PGD2 (Cayman, USA). Competing spiro-indolinones were diluted in dimethylsulphoxide so that the total volume of dimethylsulfoxide was kept constant at 1% dimethylsulphoxide (Me2SO) Serial dilutions of 100 μM and […] were prepared. 10 μl each of these spiro-indolinone stock solutions were added. Incubation (60 min at room temperature) was terminated by rapid filtration through 96 wells hydrophobic GF/C Unifilter plates (Whatman, USA). Filters were washed twice with 250 μl of Tris-HCl pH 7.4, 10 mM MnCl2, and residual radioligand bound to the filters was mixed to 100 μl of liquid scintillation cocktail (Optiphase Supermix, Perkin Elmer, USA) and binding activity was determined by counting residual radioligand using a 1450 Micro-beta scintillation counter (Wallac, UK). The following representative compounds were tested. All inhibited the binding of PGD2 to CRTH2 by more than 70%. • (1′-benzyl-5-chloro-2,2′,5′-trioxospiro[indole-3,3′-pyrrolidin]-1(2H)-yl)acetic acid • (1′-benzyl-5-fluoro-2,2′,5′-trioxospiro[indole-3,3′-pyrrolidin]-1(2H)-yl)acetic acid • 4-(1′-allyl-5-chloro-2,2′,5′-trioxospiro[indole-3,3′-pyrrolidin]-1(2H)-yl)butanoic acid • [5-chloro-1′-(2-methoxyethyl)-2,2′,5′-trioxospiro[indole-3,3′-pyrrolidin]-1(2H)-yl]acetic acid • 4-(1′-benzyl-5-chloro-2,2′,5′-trioxospiro[indole-3,3′-pyrrolidin]-1(2H)-yl)butanoic acid • (1′-benzyl-5-methoxy-2,2′,5′-trioxospiro[indole-3,3′-pyrrolidin]-1(2H)-yl)acetic acid • [5-fluoro-1′-[(2-methoxyethoxy)methyl]-2,2′,5′-trioxospiro[indole-3,3′-pyrrolidin]-1(2H)-yl]acetic acid • 4-(1′-allyl-5-fluoro-2,2′,5′-trioxospiro[indole-3,3′-pyrrolidin]-1(2H)-yl)butanoic acid • 4-(1′-benzyl-5-fluoro-2,2′,5′-trioxospiro[indole-3,3′-pyrrolidin]-1(2H)-yl)butanoic acid
Ki values were determined by equilibrium competition binding experiments against [^3H]PGD2. Ki values were calculated from the formula below and represent the average of at least three independent dose response experiments. The Ki values give the ligand concentrations necessary to inhibit 50% of the binding of [^3H]PGD2 to CRTH2. Ki=IC50/(1+[Concentration of Ligand]/Kd)]
All experiments were performed in 96 well plates, in a final volume of 100 μl according to the above described filtration assay. The concentration of membranes and 3 [H]PGD2, as well as the positive and negative controls were identical to the conditions described above.

Test [3] has as its system DK-PGD2-induced vascular leakage. The experiment in a line: Model of DK-PGD2-induced vascular leakage in mice. The class given is in vivo, Balb/c mice. Particulars: Mus musculus, 1.5 h; dose of 30 mg/kg; 30 min before DK-PGD2 challenge; Evans blue extravasation. As for the experimental part:
This test is described in Takeshita et al. (2004). Balb/c mice (Elevage Janvier) (8 week old) received an intradermal injection of DK-PGD2 (10 μg in 30 μl) on their shaved backs and an intravenous injection of Evans blue solution (25 mg/kg) 30 min after administration of the test molecules (spiro derivative). Ninety minutes after the challenge, the animals were sacrificed. The skin of the back was removed and blood was sampled. The extravasated dye (punch diameter: 5 mm) was extracted by 0.2 ml of formamide and was quantified by fluorescence (E1: 585 nm, E2: 660 nm). The Evans Blue extravasation ratio was expressed as the following: skin/serum×1000.

For orientation: inhibition means the change of the read-out against control, counted positive when it falls. Low readings indicate a response near the control, high ones a response far below the control. For orientation: Ki means the equilibrium dissociation constant of an inhibitor or competing ligand from its target. A low value points to higher affinity. The inhibition in vivo is the drop in the measured response relative to a control, in per cent. Low values mean a response near the control, high ones a response far below the control.

Consider `C=CCN1C(=O)CC2(C1=O)C(=O)N(CCCC(=O)O)c1ccc(Cl)cc12` (centres unmarked) [4-(1′-allyl-5-chloro-2,2′,5′-trioxospiro[indole-3,3′-pyrrolidin]-1(2H)-yl)butanoic acid], for which the inhibition on CRTH2 [1] is greater than 70%. The compound `C=CCN1C(=O)CC2(C1=O)C(=O)N(CCCC(=O)O)c1ccc(F)cc12` (centres unmarked) [4-(1′-allyl-5-fluoro-2,2′,5′-trioxospiro[indole-3,3′-pyrrolidin]-1(2H)-yl)butanoic acid] gave an inhibition on CRTH2 [1] greater than 70%.

For `O=C(O)CCCN1C(=O)C2(CC(=O)N(Cc3ccccc3)C2=O)c2cc(Cl)ccc21` (centres unmarked) [4-(1′-benzyl-5-chloro-2,2′,5′-trioxospiro[indole-3,3′-pyrrolidin]-1(2H)-yl)butanoic acid], the inhibition at CRTH2 [1] was greater than 70%. As to `O=C(O)CCCN1C(=O)C2(CC(=O)N(Cc3ccccc3)C2=O)c2cc(F)ccc21` (centres unmarked) [4-(1′-benzyl-5-fluoro-2,2′,5′-trioxospiro[indole-3,3′-pyrrolidin]-1(2H)-yl)butanoic acid], at CRTH2 [1], the inhibition was greater than 70%. The compound `O=C(O)CN1C(=O)C2(CC(=O)N(Cc3ccccc3)C2=O)c2cc(F)ccc21` (centres unmarked) [(1′-benzyl-5-fluoro-2,2′,5′-trioxospiro[indole-3,3′-pyrrolidin]-1(2H)-yl)acetic acid] had an inhibition on CRTH2 [1] greater than 70%. As for `COc1ccc2c(c1)C1(CC(=O)N(Cc3ccccc3)C1=O)C(=O)N2CC(=O)O` (centres unmarked) [(1′-benzyl-5-methoxy-2,2′,5′-trioxospiro[indole-3,3′-pyrrolidin]-1(2H)-yl)acetic acid], the inhibition on CRTH2 [1] was greater than 70%. `O=C(O)CN1C(=O)C2(NC(=O)N(Cc3ccccc3)C2=O)c2cc(Cl)ccc21` (centres unmarked) [Compound 107, (1-benzyl-5′-chloro-2,2′,5-trioxospiro[imidazolidine-4,3′-indol]-1′(2′H)-yl)acetic acid]: on CRTH2 [2], the Ki was 0.3 µM. Still for that read-out and setting: as for `O=C(O)CN1C(=O)C2(NC(=O)N(Cc3ccccc3F)C2=O)c2cc(Cl)ccc21` (centres unmarked) [Compound 108, [5′-chloro-1-(2-fluorobenzyl)-2,2′,5-trioxospiro[imidazolidine-4,3′-indol]-1′(2′H)-yl]acetic acid], the figure is 0.0048 µM. `O=C(O)CN1C(=O)[C@@]2(CC(=O)N(Cc3ccccc3F)C2=O)c2cc(Cl)ccc21` [Compound 109, (3R)-[5-chloro-1′-(2-fluorobenzyl)-2,2′,5′-trioxospiro[indole-3,3′-pyrrolidin]-1(2H)-yl]acetic acid]: affinity at CRTH2 [2] was put at a Ki of 0.028 µM. In test [3], this compound returned an inhibition in vivo at 30 mg/kg of 38%.

`O=C(O)CN1C(=O)[C@]2(CC(=O)N(Cc3ccccc3F)C2=O)c2cc(Cl)ccc21` [Compound 110, (3S)-[5-chloro-1′-(2-fluorobenzyl)-2,2′,5′-trioxospiro[indole-3,3′-pyrrolidin]-1(2H)-yl]acetic acid] came in with a Ki on CRTH2 [2] of 0.0084 µM. This lies in the single-digit nanomolar range. On CRTH2 [2], `O=C(O)CN1C(=O)[C@]2(CC(=O)N(Cc3cc(Cl)ccc3F)C2=O)c2cc(Cl)ccc21` [Compound 111, (3S)-[5-chloro-1′-(2-fluoro-5-chlorobenzyl)-2,2′,5′-trioxospiro[indole-3,3′-pyrrolidin]-1(2H)-yl]acetic acid] displayed a Ki of 0.47 µM. For the same compound, 30 mg/kg produced 65% inhibition in vivo in test [3]. Turning to `O=C(O)CN1C(=O)[C@@]2(CC(=O)N(Cc3cc(Cl)ccc3F)C2=O)c2cc(Cl)ccc21` [Compound 112, (3R)-[5-chloro-1′-(2-fluoro-5-chlorobenzyl)-2,2′,5′-trioxospiro[indole-3,3′-pyrrolidin]-1(2H)-yl]acetic acid], the Ki on CRTH2 [2] came out at 0.15 µM. In test [3], this compound returned an inhibition in vivo at 30 mg/kg of 61%. The compound `COCCN1C(=O)CC2(C1=O)C(=O)N(CC(=O)O)c1ccc(Cl)cc12` (centres unmarked) [[5-chloro-1′-(2-methoxyethyl)-2,2′,5′-trioxospiro[indole-3,3′-pyrrolidin]-1(2H)-yl]acetic acid] came in with an inhibition at CRTH2 [1] greater than 70%. At CRTH2 [1], `COCCOCN1C(=O)CC2(C1=O)C(=O)N(CC(=O)O)c1ccc(F)cc12` (centres unmarked) [[5-fluoro-1′-[(2-methoxyethoxy)methyl]-2,2′,5′-trioxospiro[indole-3,3′-pyrrolidin]-1(2H)-yl]acetic acid] yielded an inhibition greater than 70%.
